Earlier results, collected in publication PMC4982639, “Structural Basis of Microtubule Destabilization by Potent Auristatin Anti-Mitotics” (PLoS ONE, 2016).

Columns and labels:
tubulin dimers = details: in vitro
Description: This model of curvature between dimers is supported in vitro by the formation of curved spiral or r ...

free tubulin = test system: free tubulin
Description: (§1) Low resolution crystal structures of dolastatin 10 derivatives in complex with tubulin have further confirmed the region of binding for the auristatins, which overlaps w ...

tubulin = details: compared with vinca alkaloids, free tubulin
Description: as §1

cellular assays = details: stated in the conclusions as background; no reference given
[1] = test system: cells expressing the CD30 epitope; details: released in the cytosol from the internalized ADC Brentuximab vedotin
Description: The mechanisms by which these molecules act on tubulin dimers include the induction of curved aggregates and inhibition of nucleotide exchange. MMAE comprises the four amino acids monomethylvaline (MeVal), valine (Val), dolaisoleuine (Dil) and dolaproine (Dap), and the carboxy-terminal amine norephedrine (Fig 1A). This agent provides the cytotoxic activity for the ADC Brentuximab vedotin, currently designated for relapsed Hodgkin lymphoma and anaplastic large cell lymphoma. Bren ...

In the case of dolastatin, the “formation of curved aggregates” value (tubulin dimers) is listed as “formation of curved spiral or ring shaped aggregates”.
For dolastatin 10, the “type of inhibition of vinca alkaloids” value (free tubulin) is listed as “non-competitive inhibitor of the vinca alkaloids” and the “inhibition of nucleotide exchange” value (tubulin) is listed as “much greater inhibition of nucleotide exchange”.
For monomethyl auristatin F [MMAF], the “potency in cellular assays” value (cellular assays) is listed as “nano- and picomolar potency”.
In the case of `CC[C@]1(O)C[C@@H]2CN(CCc3c([nH]c4ccccc34)[C@@](C(=O)OC)(c3cc4c(cc3OC)N(C)[C@H]3[C@@](O)(C(=O)OC)[C@H](OC(C)=O)[C@]5(CC)C=CCN6CC[C@]43[C@@H]65)C2)C1` [vinblastine], the “formation of curved aggregates” value (tubulin dimers) is given as “formation of curved spiral or ring shaped aggregates”.
For cryptophycin, the “formation of curved aggregates” value (tubulin dimers) is listed as “formation of curved spiral or ring shaped aggregates”.
In the case of monomethyl auristatin E [MMAE], the “potency in cellular assays” value (cellular assays) is listed as “nano- and picomolar potency” and the “cellular effect of released MMAE” value [1] is listed as “mitotic arrest and apoptosis”.
